The IC50 is the concentration that inhibits the measured activity by half.

Drawing on patent US20040067531A1, “Methods of modulating protein tyrosine kinase function with substituted indolinone compounds” (SUGEN, INC., priority 1997, published 2004), this text covers IC50 for 14 compounds.

The subject of test [1] is HUV-EC-C cells; VEGF. The test is described as follows: HUVEC-VEGF 3H-thymidine incorporation assay. Format: cell-based, human. To be noted: Homo sapiens. As to the method: The following protocol is used to measure a compound's activity against VEGF and aFGF, all of which are expressed by HUVEC cells.
1. […] After cells have detached from the flask, add an equal volume of assay medium and transfer to a 50 mL sterile centrifuge tube (Fisher Scientific; catalogue no. 05-539-6).
2. Wash the cells with about 35 mL assay medium in the 50 mL sterile centrifuge tube by adding the assay medium, centrifuge for 10 minutes at approximately 200×g, aspirate the supernatant, and resuspend with 35 mL D-PBS. Repeat the wash two more times with D-PBS, resuspend the cells in about 1 mL assay medium/15 cm^2 of tissue culture flask. Assay medium consists of F12K medium (Gibco BRL; catalogue no. 21127-014)+0.5% heat-inactivated fetal bovine serum. Count the cells with a Coulter Counter® (Coulter Electronics, Inc.) and add assay medium to the cells to obtain a concentration of 0.8-1.0×10^5 cells/mL.
3. Add cells to 96-well flat-bottom plates at 100 μL/well or 0.8-1.0×10^4 cells/well; incubate ˜24h at 37° C., 5% CO^2.
1. Make up two-fold drug titrations in separate 96-well plates, generally 50 μM on down to 0 μM. Use the same assay medium as mentioned in day 0, step 2 above. Titrations are made by adding […] of drug at 200 μM (4× the final well concentration) to the top well of a particular plate column. Since the stock drug concentration is usually 20 mM in DMSO, the 200 μM drug concentration contains 2% DMSO.
Therefore, diluent made up to 2% DMSO in assay medium (F12K+0.5% fetal bovine serum) is used as diluent for the drug titrations in order to dilute the drug but keep the DMSO concentration constant. Add this diluent to the remaining wells in the column at 60 μL/well. Take 60 μL from the 120 μL of 200 μM drug dilution in the top well of the column and mix with the 60 μL in the second well of the column. Take 60 μL from this well and mix with the 60 μL in the third well of the column, and so on until two-fold titrations are completed. When the next-to-the-last well is mixed, take 60 μL of the 120 μL in this well and discard it. Leave the last well with 60 μL of DMSO/media diluent as a non-drug-containing control. Make 9 columns of titrated drug, enough for triplicate wells each for 1) VEGF (obtained from Pepro Tech Inc., catalogue no. 100-200, 2) endothelial cell growth factor (ECGF) (also known as acidic fibroblast growth factor, or aFGF) (obtained from Boehringer Mannheim Biochemica, catalogue no. 1439 600); or, 3) human PDGF B/B (1276-956, Boehringer Mannheim, Germany) and assay media control. ECGF comes as a preparation with sodium heparin.
2. Transfer 50 μL/well of the drug dilutions to the 96-well assay plates containing the 0.8-1.0×10^4 cells/100 μL/well of the HUV-EC-C cells from day 0. and incubate ˜2 h at 37° C., 5% CO2.
3. […] As with the drugs, the growth factor concentrations are 4× the desired final concentration. Use the assay media from day 0 step 2 to make the concentrations of growth factors. Incubate approximately 24 hours at 37° C., 5% CO2. Each well will have 50 μL drug dilution, 50 μL growth factor or media, and 100 μL cells, =200 μL/well total. Thus the 4× concentrations of drugs and growth factors become 1× once everything has been added to the wells.
1. Add ^3H-thymidine (Amersham; catalogue no. TRK-686) at 1 μCi/well (10 μL/well Of 100 μCi/mi solution made up in RPMI media +10% heat-inactivated fetal bovine serum) and incubate μ24 h at 37° C., 5% CO2. RPMI was obtained from Gibco BRL, catalogue no. 11875-051.
1. Freeze plates overnight at […]
1. Thaw plates and harvest with a 96-well plate harvester (Tomtec Harvester 96®) onto filter mats (Wallac; catalogue no. 1205-401); read counts on a Wallac Betaplate™ liquid scintillation counter.
The IC50 values were measured for several of the compounds of the invention.

The subject of test [2] is HUV-EC-C cells; aFGF (ECGF). As to the kind of experiment: HUVEC-aFGF 3H-thymidine incorporation assay. The format is cell-based, human. The note with it: Homo sapiens.
Protocol: Use the same assay medium as mentioned in day 0, step 2 above. Titrations are made by adding 90 μL/well of drug at 200 μM (4× the final well concentration) to the top well of a particular plate column. Since the stock drug concentration is usually 20 mM in DMSO, the 200 μM drug concentration contains 2% DMSO.
Therefore, diluent made up to 2% DMSO in assay medium (F12K+0.5% fetal bovine serum) is used as diluent for the drug titrations in order to dilute the drug but keep the DMSO concentration constant. Add this diluent to the remaining wells in the column at 60 μL/well. Take 60 μL from the 120 μL of 200 μM drug dilution in the top well of the column and mix with the 60 μL in the second well of the column. Take 60 μL from this well and mix with the 60 μL in the third well of the column, and so on until two-fold titrations are completed. When the next-to-the-last well is mixed, take 60 μL of the 120 μL in this well and discard it. Leave the last well with 60 μL of DMSO/media diluent as a non-drug-containing control. Make 9 columns of titrated drug, enough for triplicate wells each for 1) VEGF (obtained from Pepro Tech Inc., catalogue no. […] ECGF comes as a preparation with sodium heparin.
In triplicate, add 50 μL/well of 80 μg/mL VEGF, 20 ng/mL ECGF, or media control to each drug condition. As with the drugs, the growth factor concentrations are 4× the desired final concentration. Use the assay media from day 0 step 2 to make the concentrations of growth factors.
Freeze plates overnight at 20° C.
The test system of test [3] is FGF-induced BrdU incorporation. The test is described as follows: FGF-induced BrdU incorporation assay. Format: cell-based. To be noted: read-out: FGF-Induced BrdU Incorp. IC50. The method, then: (§1) PDGF-, FGF-, and EGF-Induced BRDU Incorporation Assay
(§2) 1. Cells were seeded at 8000 cells/well in DMEM, 10% CS, 2 mM Gln in a 96 well plate. Cells were incubated overnight at 37° C. in 5% CO2.
(§3) 2. After 24 hours, the cells were washed with PBS, and then were serum starved in serum free medium (0% CS DMEM with 0.1% BSA) for 24 hours.
(§4) 3. On day 3, ligand (PDGF=3.8 nM, prepared in DMEM with 0.1% BSA) and test compounds were added to the cells simultaneously. The negative control wells received serum free DMEM with 0.1% BSA only; the positive control cells received the ligand (PDGF) but no test compound. Test compounds were prepared in serum free DMEM with ligand in a 96 well plate, and serially diluted for 7 test concentrations.
(§5) 4. After 20 hours of ligand activation, diluted BrdU labeling reagent (1:100 in DMEM, 0.1% BSA) was added and the cells were incubated with BrdU (final concentration=10 μM) for 1.5 hours.
(§6) 5. After incubation with labeling reagent, the medium was removed by decanting and tapping the inverted plate on a paper towel. FixDenat solution was added (50 μL/well) and the plates were incubated at room temperature for 45 minutes on a plate shaker.
(§7) 6. The FixDenat solution was thoroughly removed by decanting and tapping the inverted plate on a paper towel. Milk was added (5% dehydrated milk in PBS, 200 μL/well) as a blocking solution and the plate was incubated for 30 minutes at room temperature on a plate shaker.
(§8) 7. The blocking solution was removed by decanting and the wells were washed once with PBS. Anti-BrdU-POD solution (1:100 dilution in PBS, 1% BSA) was added (100 μL/well), and the plate was incubated for 90 minutes at room temperature on a plate shaker.
(§9) 8. The antibody conjugate was thoroughly removed by decanting and rinsing the wells 5 times with PBS, and the space was dried by inverting and tapping on a paper towel.
(§10) 9. TMB substrate solution was added (100 μL/well) and incubated for 20 minutes at room temperature on a plate shaker until color development was sufficient for photometric detection.
(§11) 10. The absorbance of the samples were measured at 410 nm (in “dual wavelength” mode with a filter reading at 490 nm, as a reference wavelength) on a Dynatech ELISA plate reader.
(§12) The IC50 values were measured for several of the compounds of the invention. These values are depicted in Table 10.
For orientation: Uptake of a labelled nucleoside into DNA is a usual measure of proliferation.

In test [4] the test system is EGF-induced BrdU incorporation. The test is described as follows: EGF-induced BrdU incorporation assay. The format is cell-based. To be noted: read-out: EGF-Induced BrdU Incorp. IC50. The method, then: as §1, §2, §3, §4, §5, §6, §7, §8, §9, §10, §11, §12

Each structure is given as a SMILES string. Where only a bound is given, the exact number is not on record here.

For the compound `Cc1cccc2c1C(=Cc1[nH]c3c(c1CCC(=O)O)CCCC3)C(=O)N2` [IN-004, 3-[2-(4-Methyl-2-oxo-1,2-dihydro-indol-3-ylidenemethyl)-4,5,6,7-tetrahydro-1H-indol-3-yl]-propionic acid], the IC50 in test [1] stood at 0.94 nM; in test [2], 2.5 nM; in test [3], 26.7 µM; in test [4], 52 µM.
Turning to `Cc1ccc2c(c1)C(=Cc1[nH]c3c(c1CCC(=O)O)CCCC3)C(=O)N2` [IN-005, 3-[2-(5-Methyl-2-oxo-1,2-dihydro-indol-3-ylidenemethyl)-4,5,6,7-tetrahydro-1H-indol-3-yl]-propionic acid], the 50% inhibitory concentration (IC50) was found to be 1 nM in test [1], 4.4 nM in test [2], 30.1 µM in test [3] and 61.5 µM in test [4].
Taken in the same sequence, the figures for `CN(C)C(=O)CCc1c(C=C2C(=O)Nc3ccccc32)[nH]c2c1CCCC2` [IN-008, N,N-Dimethyl-3-[2-(2-oxo-1,2-dihydro-indol-3-ylidenemethyl)-4,5,6,7-tetrahydro-1H-indol-3-yl]-propionamide] were below 3 nM, 2200 nM, above 50 µM and above 50 µM.
In the case of `Cc1c[nH]c(C=C2C(=O)Nc3ccc(Cl)cc32)c1CCC(=O)O` [IN-027, 3-[2-(5-Chloro-2-oxo-1,2-dihydro-indol-3-ylidenemethyl)-4-methyl-1H-pyrrol-3-yl]-propionic acid], the 50% inhibitory concentration (IC50) is below 70 nM in test [1], 1400 nM in test [2] and above 50 µM in test [4].
On to `CNC(=O)CCc1c(C=C2C(=O)Nc3ccccc32)[nH]c2c1CCCC2` [IN-012, N-Methyl-3-[2-(2-oxo-1,2-dihydro-indol-3-ylidenemethyl)-4,5,6,7-tetrahydro-1H-indol-3-yl]-propionamide], for which the half-inhibitory concentration (IC50) in test [1] was below 30 nM; in test [2] it was 160 nM; in test [3], above 50 µM; in test [4] it was 78.5 µM.
In the same order, the values of `O=C(CCc1c(C=C2C(=O)Nc3ccccc32)[nH]c2c1CCCC2)NCCN1CCOCC1` [IN-013, N-(2-Morpholin-4-yl-ethyl)-3-[2-(2-oxo-1,2-dihydro-indol-3-ylidenemethyl)-4,5,6,7-tetrahydro-1H-indol-3-yl]-propionamide] are below 30 nM, 2100 nM, above 50 µM and 52 µM.
Taken in the same sequence, the figures for `O=C(O)CCc1c(C=C2C(=O)Nc3ccccc32)[nH]c2c1CCCC2` [IN-001, 3-[2-(2-Oxo-1,2-dihydro-indol-3-ylidenemethyl)-4,5,6,7-tetrahydro-1H-indol-3-yl]-propionic acid] were 1.9 nM, 15.9 nM, 18.2 µM and 95.4 µM.
Taken in the same sequence, the figures for `COc1ccc2c(c1)NC(=O)C2=Cc1[nH]c2c(c1CCC(=O)O)CCCC2` [IN-007, 3-[2-(6-Methoxy-2-oxo-1,2-dihydro-indol-3-ylidenemethyl)-4,5,6,7-tetrahydro-1H-indol-3-yl]-propionic acid] were 20 nM, 1600 nM, 42.1 µM and above 100 µM.
Turning to `COc1ccc2c(c1)NC(=O)C2=Cc1[nH]cc(C)c1CCC(=O)O` [IN-028, 3-[2-(6-Methoxy-2-oxo-1,2-dihydro-indol-3-ylidenemethyl)-4-methyl-1H-pyrrol-3-yl]-propionic acid], the concentration for half-maximal inhibition (IC50) is 620 nM in test [1], 4800 nM in test [2], above 50 µM in test [3] and above 50 µM in test [4].
Regarding `O=C(O)CCc1c(C=C2C(=O)Nc3ccc(Br)cc32)[nH]c2c1CCCC2` [IN-003, 3-[2-(5-Bromo-2-oxo-1,2-dihydro-indol-3-ylidenemethyl)-4,5,6,7-tetrahydro-1H-indol-3-yl]-propionic acid], the concentration for half-maximal inhibition (IC50) in test [1] is 0.3 nM; in test [2], 76 nM; in test [3] it was 15.7 µM; in test [4], 78.5 µM.
Turning to `O=C1Nc2ccccc2C1=Cc1[nH]c2c(c1CCC(=O)N1CCOCC1)CCCC2` [IN-011, 3-[3-(3-Morpholin-4-yl-3-oxo-propyl)-4,5 6,7-tetrahydro-1H-indol-2-ylmethylene]-1,3-dihydro-indol-2-one], the concentration for half-maximal inhibition (IC50) was 220 nM in test [1], 9200 nM in test [2], above 50 µM in test [3] and 83.5 µM in test [4].
Taken in the same sequence, the figures for `NC(=O)CCc1c(C=C2C(=O)Nc3ccccc32)[nH]c2c1CCCC2` [IN-010, 3-[2-(2-Oxo-1,2-dihydro-indol-3-ylidenemethyl)-4,5,6,7-tetrahydro-1H-indol-3-yl]-propionamide] were below 30 nM, 100 nM, above 50 µM and 95.4 µM.
In the case of `Cc1c[nH]c(C=C2C(=O)Nc3ccccc32)c1CCC(=O)O` [IN-026, 3-[4-Methyl-2-(2-oxo-1,2-dihydro-indol-3-ylidenemethyl)-1H-pyrrol-3-yl]-propionic acid], the half-inhibitory concentration (IC50) in test [2] was 1100 nM; in test [3], 25 µM; in test [4], above 100 µM.
For `Cc1c[nH]c(C=C2C(=O)Nc3ccc(Br)cc32)c1CCC(=O)O` [IN-031, 3-[2-(5-Bromo-2-oxo-1,2-dihydro-indol-3-ylidenemethyl)-4-methyl-1H-pyrrol-3-yl]-propionic acid], the IC50 in test [1] was 40 nM; in test [3] it was above 50 µM; in test [4] it was above 50 µM.
